One assay deals with T1, human FAAH enzyme (Homo sapiens, UniProt O00519).
T1 sequence (O00519 1-579): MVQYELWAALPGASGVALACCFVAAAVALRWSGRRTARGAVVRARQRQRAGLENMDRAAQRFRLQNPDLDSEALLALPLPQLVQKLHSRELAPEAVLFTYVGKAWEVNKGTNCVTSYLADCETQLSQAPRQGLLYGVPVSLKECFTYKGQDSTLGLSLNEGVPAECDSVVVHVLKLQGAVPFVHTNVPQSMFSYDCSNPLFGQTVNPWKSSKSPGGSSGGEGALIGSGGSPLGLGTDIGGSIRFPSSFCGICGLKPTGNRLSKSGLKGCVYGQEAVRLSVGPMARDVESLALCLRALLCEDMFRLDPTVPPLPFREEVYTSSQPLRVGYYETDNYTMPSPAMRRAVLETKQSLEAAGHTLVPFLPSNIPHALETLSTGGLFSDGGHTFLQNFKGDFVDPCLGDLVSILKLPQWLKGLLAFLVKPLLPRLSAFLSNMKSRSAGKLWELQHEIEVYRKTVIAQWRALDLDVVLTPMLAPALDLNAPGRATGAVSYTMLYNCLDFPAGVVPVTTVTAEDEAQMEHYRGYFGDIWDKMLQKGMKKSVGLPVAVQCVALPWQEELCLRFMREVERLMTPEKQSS
Nature of the assay: Human FAAH enzyme inhibition assay. The assay is classed as biochemical.

For a further assay, the target named is T2, Human sEH (Homo sapiens, UniProt P34913).
T2 sequence (P34913 1-555): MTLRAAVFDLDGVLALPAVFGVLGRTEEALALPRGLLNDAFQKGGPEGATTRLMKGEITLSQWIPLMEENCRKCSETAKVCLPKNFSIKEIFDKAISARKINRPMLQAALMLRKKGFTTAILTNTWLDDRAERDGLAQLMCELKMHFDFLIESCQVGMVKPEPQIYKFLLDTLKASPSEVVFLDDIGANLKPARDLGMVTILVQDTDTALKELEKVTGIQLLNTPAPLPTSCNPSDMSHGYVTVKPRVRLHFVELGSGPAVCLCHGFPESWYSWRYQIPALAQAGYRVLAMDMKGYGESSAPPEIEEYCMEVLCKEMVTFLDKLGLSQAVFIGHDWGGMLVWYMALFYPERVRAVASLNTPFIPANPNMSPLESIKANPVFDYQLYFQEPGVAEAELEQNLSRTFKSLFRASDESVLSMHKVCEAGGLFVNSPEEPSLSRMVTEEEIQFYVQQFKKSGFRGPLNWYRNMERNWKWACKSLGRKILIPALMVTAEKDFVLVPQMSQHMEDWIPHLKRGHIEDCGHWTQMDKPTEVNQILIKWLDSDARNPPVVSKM
Nature of the assay: Human sEH inhibition assay. The assay is classed as biochemical. As to conditions: sEH IC50, human sEH 1 nM, CMNPC 5 μM, pH 7.0, 30 °C.

As for `O=C(Nc1ccc(-c2nc3ccccc3s2)cc1)C1CCN(S(=O)(=O)c2ccc(F)cc2)CC1` [Compound 4-14, N-(4-(benzo[d]thiazol-2-yl)phenyl)-1-((4-fluorophenyl)sulfonyl)piperidine-4-carboxamide], the IC50 against human FAAH enzyme stood at 77 nM; on Human sEH, 1300 nM.

With `Cc1cccc(S(=O)(=O)N2CCC(C(=O)Nc3ccc(-c4nc5ccccc5s4)cc3)CC2)c1` [Compound 4-12, N-(4-(benzo[d]thiazol-2-yl)phenyl)-1-(m-tolylsulfonyl)piperidine-4-carboxamide], the IC50 amounted to 7 nM on human FAAH enzyme and 940 nM against Human sEH.

For `O=C(Nc1ccc(-c2nc3ccccc3s2)cc1)C1CCN(S(=O)(=O)c2cc(Br)c(Cl)s2)CC1` [Compound 4-2, N-(4-(benzo[d]thiazol-2-yl)phenyl)-1-((4-bromo-5-chlorothiophen-2-yl)sulfonyl)piperidine-4-carboxamide], the values for the IC50 against human FAAH enzyme and against Human sEH were 2700 nM and 5900 nM, respectively.

For `O=C(Nc1ccc(-c2nc3ccccc3s2)cc1)C1CCN(S(=O)(=O)c2c(Cl)cc(Cl)cc2Cl)CC1` [Compound 4-27, N-(4-(benzo[d]thiazol-2-yl)phenyl)-1-((2,4,6-trichlorophenyl)sulfonyl)piperidine-4-carboxamide], the IC50 against human FAAH enzyme was found to be 270 nM; against Human sEH, 1300 nM.

Consider `O=C(Nc1ccc(-c2nc3ccccc3s2)cc1)C1CCN(S(=O)(=O)c2c(F)c(F)c(F)c(F)c2F)CC1` [Compound 4-30, N-(4-(benzo[d]thiazol-2-yl)phenyl)-1-((perfluorophenyl)sulfonyl)piperidine-4-carboxamide], for which the values for the concentration for half-maximal inhibition (IC50) on human FAAH enzyme and at Human sEH were greater than 10000 nM and 2670 nM, respectively.

Regarding `COc1cccc(S(=O)(=O)N2CCC(C(=O)Nc3ccc(-c4nc5ccccc5s4)cc3)CC2)c1` [Compound 4-13, N-(4-(benzo[d]thiazol-2-yl)phenyl)-1-((3-methoxyphenyl)sulfonyl)piperidine-4-carboxamide], the IC50 against human FAAH enzyme was found to be 14.6 nM; on Human sEH it was 620 nM.

As for `O=C(Nc1ccc(-c2nc3ccccc3s2)cc1)C1CCN(S(=O)(=O)c2ccc(Br)cc2Br)CC1` [Compound 4-21, N-(4-(benzo[d]thiazol-2-yl)phenyl)-1-((2,4-dibromophenyl)sulfonyl)piperidine-4-carboxamide], the IC50 at human FAAH enzyme was 10 nM; at Human sEH, 36 nM.

For the compound `O=C(Nc1ccc(-c2nc3ccccc3s2)cc1)C1CCN(S(=O)(=O)c2ccccc2Br)CC1` [Compound 4-6, N-(4-(benzo[d]thiazol-2-yl)phenyl)-1-((2-bromophenyl)sulfonyl)piperidine-4-carboxamide], the figures for the IC50 against human FAAH enzyme and at Human sEH were 6.1 nM and 24 nM, respectively.

Regarding `O=C(Nc1ccc(-c2nc3ccccc3s2)cc1)C1CCN(S(=O)(=O)c2ccc(F)cc2F)CC1` [Compound 4-19, N-(4-(benzo[d]thiazol-2-yl)phenyl)-1-((2,4-difluorophenyl)sulfonyl)piperidine-4-carboxamide], the IC50 on human FAAH enzyme was 11.4 nM; on Human sEH, 195 nM.

For `O=C(Nc1ccc(-c2nc3ccccc3s2)cc1)C1CCN(S(=O)(=O)c2cccc(Cl)c2)CC1` [Compound 4-10, N-(4-(benzo[d]thiazol-2-yl)phenyl)-1-((3-chlorophenyl)sulfonyl)piperidine-4-carboxamide], the IC50 against human FAAH enzyme stood at 7.2 nM; against Human sEH, 2400 nM.

Regarding `O=C(Nc1ccc(-c2nc3ccccc3s2)cc1)C1CCN(S(=O)(=O)c2cc(F)cc(F)c2)CC1` [Compound 4-24, N-(4-(benzo[d]thiazol-2-yl)phenyl)-1-((3,5-difluorophenyl)sulfonyl)piperidine-4-carboxamide], the IC50 is greater than 10000 nM against human FAAH enzyme and 1100 nM against Human sEH.

Consider `COc1ccc(S(=O)(=O)N2CCC(C(=O)Nc3ccc(-c4nc5ccccc5s4)cc3)CC2)cc1` [Compound 4-18, N-(4-(benzo[d]thiazol-2-yl)phenyl)-1-((4-methoxyphenyl)sulfonyl)piperidine-4-carboxamide], for which the figures for the IC50 on human FAAH enzyme and against Human sEH were greater than 10000 nM and 84 nM, respectively.

As to `Cc1ccccc1S(=O)(=O)N1CCC(C(=O)Nc2ccc(-c3nc4ccccc4s3)cc2)CC1` [Compound 4-7, N-(4-(benzo[d]thiazol-2-yl)phenyl)-1-(o-tolylsulfonyl)piperidine-4-carboxamide], the IC50 against human FAAH enzyme stood at 9.6 nM; at Human sEH it was 35 nM.

Turning to `O=C(Nc1ccc(-c2nc3ccccc3s2)cc1)C1CCN(S(=O)(=O)c2cccc(Br)c2)CC1` [Compound 4-11, N-(4-(benzo[d]thiazol-2-yl)phenyl)-1-((3-bromophenyl)sulfonyl)piperidine-4-carboxamide], the IC50 at human FAAH enzyme amounted to 51.6 nM; on Human sEH it was 1100 nM.

Consider `O=C(Nc1ccc(-c2nc3ccccc3s2)cc1)C1CCN(S(=O)(=O)c2ccccc2F)CC1` [Compound 4-4, N-(4-(benzo[d]thiazol-2-yl)phenyl)-1-((2-fluorophenyl)sulfonyl)piperidine-4-carboxamide], for which the results for the IC50 at human FAAH enzyme and against Human sEH were 1.3 nM and 150 nM, respectively.

Take `Cc1cc(C)cc(S(=O)(=O)N2CCC(C(=O)Nc3ccc(-c4nc5ccccc5s4)cc3)CC2)c1` [Compound 4-25, N-(4-(benzo[d]thiazol-2-yl)phenyl)-1-((3,5-dimethylphenyl)sulfonyl)piperidine-4-carboxamide]: the half-maximal inhibitory concentration (IC50) at human FAAH enzyme is greater than 10000 nM; at Human sEH, 3600 nM.

As a reminder, the IC50 is the concentration needed to halve the response being measured. Lower therefore signals higher potency.

Values taken from publication PMC7723751 (Bioorganic chemistry, 2020).
